Columns and labels:
[1] = molecular target: HCV NS3/4A protease complex, BMS strain (UniProt P27958, C1454S/C1711G, species not given/STRAIN_BMS); assay: Recombinant HCV NS3/4A protease complex FRET peptide assay (BMS strain); assay type: biochemical, HCV genotype 1a; details: NS3/4A BMS strain; read-out: IC50 range
Outline: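 Percent inhibition taken from the linear-range fluorescence slope relative to uninhibited control, read kinetically for about 15 min at 25° C. Enzyme (2-3 nM, BMS NS3/4A complex, lysine-tailed, Ni-NTA purified) met compound for 1 min before 2 μM FRET depsipeptide substrate started cleavage.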

[2] = tested on: HCV replicon in Huh7 cells; assay: HCV replicon cell-based assay; parameters: species or system HCV strain 1B; details: Hepatitis C virus, Huh-7; HCV replicon, Huh7 cells; read-out: EC50 range

Row | Structure (SMILES) | IC50 [1] [nM] | EC50 [2] [nM]
1 | C=C[C@@H]1C[C@]1(NC(=O)[C@@H]1C[C@@H](Oc2ncc(OC)c3cc(OC)ccc23)CN1C(=O)[C@@H](NC(=O)OC(C)(C)C)C(C)(C)C)C(=O)NS(=O)(=O)C1CC1 [Compound 279] | < 100 | < 100
2 | C=C[C@@H]1C[C@]1(NC(=O)[C@@H]1C[C@@H](Oc2nccc3cc(O)ccc23)CN1C(=O)[C@@H](NC(=O)OC(C)(C)C)C(C)(C)C)C(=O)NS(=O)(=O)C1CC1 [Compound 280] | < 100 | < 100
3 | C=C[C@@H]1C[C@]1(NC(=O)[C@@H]1C[C@@H](Oc2ncc(Cl)c3ccccc23)CN1C(=O)[C@@H](NC(=O)OC(C)(C)C)C(C)(C)C)C(=O)NS(=O)(=O)C1CC1 [Compound 281] | < 100 | < 100
4 | C=C[C@@H]1C[C@]1(NC(=O)[C@@H]1C[C@@H](Oc2nccc3cc(OC(F)(F)F)ccc23)CN1C(=O)[C@@H](NC(=O)OC(C)(C)C)C(C)(C)C)C(=O)NS(=O)(=O)C1CC1 [Compound 282] | < 100 | 100 to 1000
5 | C=C[C@@H]1C[C@]1(NC(=O)[C@@H]1C[C@@H](Oc2ccc3c(OC)cnc(Cl)c3c2)CN1C(=O)[C@@H](NC(=O)OC(C)(C)C)C(C)(C)C)C(=O)NS(=O)(=O)C1CC1 [Compound 283] | < 100 | 100 to 1000
6 | C=C[C@@H]1C[C@]1(NC(=O)[C@@H]1C[C@@H](Oc2ncc(Cl)c3ccc(OC)cc23)CN1C(=O)[C@@H](NC(=O)OC(C)(C)C)C(C)(C)C)C(=O)NS(=O)(=O)C1CC1 [Compound 284] | 100 to 1000 | 10000 to 100000
7 | C=CC1CC1(NC(=O)C1CC(Oc2nccc3c(OC(F)F)cccc23)CN1C(=O)C(NC(=O)OC(C)(C)C)C(C)(C)C)C(=O)NS(=O)(=O)C1CC1 (stereo not shown) [Compound 285] | < 100 | < 100
8 | C=C[C@@H]1C[C@]1(NC(=O)[C@@H]1C[C@@H](Oc2nccc3c4c(ccc23)OCCO4)CN1C(=O)[C@@H](NC(=O)OC(C)(C)C)C(C)(C)C)C(=O)NS(=O)(=O)C1CC1 [Compound 286] | < 100 | < 100
9 | C=C[C@@H]1C[C@]1(NC(=O)[C@@H]1C[C@@H](Oc2nccc3c4c(ccc23)OC(F)(F)O4)CN1C(=O)[C@@H](NC(=O)OC(C)(C)C)C(C)(C)C)C(=O)NS(=O)(=O)C1CC1 [Compound 287] | < 100 | 100 to 1000
10 | C=C[C@@H]1C[C@]1(NC(=O)[C@@H]1C[C@@H](Oc2nccc3cc4c(cc23)OC(F)(F)O4)CN1C(=O)[C@@H](NC(=O)OC(C)(C)C)C(C)(C)C)C(=O)NS(=O)(=O)C1CC1 [Compound 288] | < 100 | 1000 to 10000
11 | CC[C@@H]1C[C@]1(NC(=O)[C@@H]1C[C@@H](Oc2nccc3c4c(ccc23)OC(F)(F)O4)CN1C(=O)[C@@H](NC(=O)OC(C)(C)C)C(C)(C)C)C(=O)NS(=O)(=O)C1CC1 [Compound 289] | < 100 | 100 to 1000
12 | CC[C@@H]1C[C@]1(NC(=O)[C@@H]1C[C@@H](Oc2nccc3c4c(ccc23)OCCO4)CN1C(=O)[C@@H](NC(=O)OC(C)(C)C)C(C)(C)C)C(=O)NS(=O)(=O)C1CC1 [Compound 290] | < 100 | < 100
13 | CC[C@@H]1C[C@]1(NC(=O)[C@@H]1C[C@@H](Oc2ncc(OC)c3ccccc23)CN1C(=O)[C@@H](NC(=O)OC(C)(C)C)C(C)(C)C)C(=O)NS(=O)(=O)C1CC1 [Compound 291] | < 100 | < 100
14 | CC[C@@H]1C[C@]1(NC(=O)[C@@H]1C[C@@H](Oc2nccc3c(OC)cccc23)CN1C(=O)[C@@H](NC(=O)OC(C)(C)C)C(C)(C)C)C(=O)NS(=O)(=O)C1CC1 [Compound 292] | < 100 | 100 to 1000
15 | CC[C@@H]1C[C@]1(NC(=O)[C@@H]1C[C@@H](Oc2nccc3c(C)cccc23)CN1C(=O)[C@@H](NC(=O)OC(C)(C)C)C(C)(C)C)C(=O)NS(=O)(=O)C1CC1 [Compound 293] | < 100 | 100 to 1000
16 | CC[C@@H]1C[C@]1(NC(=O)[C@@H]1C[C@@H](Oc2nccc3c(Cl)cccc23)CN1C(=O)[C@@H](NC(=O)OC(C)(C)C)C(C)(C)C)C(=O)NS(=O)(=O)C1CC1 [Compound 294] | < 100 | 100 to 1000
17 | CC[C@@H]1C[C@]1(NC(=O)[C@@H]1C[C@@H](Oc2nccc3c(C(F)(F)F)cccc23)CN1C(=O)[C@@H](NC(=O)OC(C)(C)C)C(C)(C)C)C(=O)NS(=O)(=O)C1CC1 [Compound 295] | 100 to 1000 | 1000 to 10000
18 | CC[C@@H]1C[C@]1(NC(=O)[C@@H]1C[C@@H](Oc2nccc3ccc(C)cc23)CN1C(=O)[C@@H](NC(=O)OC(C)(C)C)C(C)(C)C)C(=O)NS(=O)(=O)C1CC1 [Compound 296] | < 100 | 100 to 1000

Row | Structure (SMILES) | IC50 [1] [nM] | EC50 [2] [nM]
19 | CC[C@@H]1C[C@]1(NC(=O)[C@@H]1C[C@@H](Oc2nccc3cccc(C)c23)CN1C(=O)[C@@H](NC(=O)OC(C)(C)C)C(C)(C)C)C(=O)NS(=O)(=O)C1CC1 [Compound 297] | 100 to 1000 | 1000 to 10000
20 | CC[C@@H]1C[C@]1(NC(=O)[C@@H]1C[C@@H](Oc2nccc3cc(OC)c(F)cc23)CN1C(=O)[C@@H](NC(=O)OC(C)(C)C)C(C)(C)C)C(=O)NS(=O)(=O)C1CC1 [Compound 298] | < 100 | < 100
21 | CC[C@@H]1C[C@]1(NC(=O)[C@@H]1C[C@@H](Oc2nccc3c(F)c(OC)ccc23)CN1C(=O)[C@@H](NC(=O)OC(C)(C)C)C(C)(C)C)C(=O)NS(=O)(=O)C1CC1 [Compound 299] | < 100 | 100 to 1000
22 | CC[C@@H]1C[C@]1(NC(=O)[C@@H]1C[C@@H](Oc2cc3c(Cl)nccc3cc2OC)CN1C(=O)[C@@H](NC(=O)OC(C)(C)C)C(C)(C)C)C(=O)NS(=O)(=O)C1CC1 [Compound 300] | < 100 | 100 to 1000
23 | C=CC1C[C@]1(NC(=O)[C@@H]1C[C@@H](Oc2nc(-c3ccccn3)cc3cc(OC)ccc23)CN1C(=O)[C@@H](NC(=O)OC(C)(C)C)C(C)(C)C)C(=O)NS(=O)(=O)C1CC1 (stereo partly shown) [Compound 320] | < 100 | < 100
24 | C=CC1C[C@]1(NC(=O)[C@@H]1C[C@@H](Oc2nc(-c3csc(N(CC)CC)n3)cc3cc(OC)ccc23)CN1C(=O)[C@@H](NC(=O)OC(C)(C)C)C(C)(C)C)C(=O)NS(=O)(=O)C1CC1 (stereo partly shown) [Compound 321] | < 100 | 100 to 1000
25 | C=CC1C[C@]1(NC(=O)[C@@H]1C[C@@H](Oc2nc(-c3csc(N(C)C)n3)cc3cc(OC)ccc23)CN1C(=O)[C@@H](NC(=O)OC(C)(C)C)C(C)(C)C)C(=O)NS(=O)(=O)C1CC1 (stereo partly shown) [Compound 322] | < 100 | < 100
26 | C=CC1C[C@]1(NC(=O)[C@@H]1C[C@@H](Oc2noc3cc(OC)ccc23)CN1C(=O)[C@@H](NC(=O)OC(C)(C)C)C(C)(C)C)C(=O)NS(=O)(=O)C1CC1 (stereo partly shown) [Compound 323] | < 100 | 100 to 1000
27 | C=CC1C[C@]1(NC(=O)[C@@H]1C[C@@H](Oc2nsc3ccccc23)CN1C(=O)[C@@H](NC(=O)OC(C)(C)C)C(C)(C)C)C(=O)NS(=O)(=O)C1CC1 (stereo partly shown) [Compound 324] | < 100 | 100 to 1000
28 | C=CC1C[C@]1(NC(=O)[C@@H]1C[C@@H](Oc2nc(-c3ccncc3)cc3cc(OC)ccc23)CN1C(=O)[C@@H](NC(=O)OC(C)(C)C)C(C)(C)C)C(=O)NS(=O)(=O)C1CC1 (stereo partly shown) [Compound 325] | < 100 | < 100
29 | C=CC1C[C@]1(NC(=O)[C@@H]1C[C@@H](Oc2nc(-c3ccc(N(C)C)cc3)cc3cc(OC)ccc23)CN1C(=O)[C@@H](NC(=O)OC(C)(C)C)C(C)(C)C)C(=O)NS(=O)(=O)C1CC1 (stereo partly shown) [Compound 326] | < 100 | < 100
30 | C=CC1C[C@]1(NC(=O)[C@@H]1C[C@@H](Oc2nc(-c3ccc(N(CC)CC)cc3)cc3cc(OC)ccc23)CN1C(=O)[C@@H](NC(=O)OC(C)(C)C)C(C)(C)C)C(=O)NS(=O)(=O)C1CC1 (stereo partly shown) [Compound 327] | < 100 | < 100
31 | C=CC1C[C@]1(NC(=O)[C@@H]1C[C@@H](Oc2nc(-c3cccnc3)cc3cc(OC)ccc23)CN1C(=O)[C@@H](NC(=O)OC(C)(C)C)C(C)(C)C)C(=O)NS(=O)(=O)C1CC1 (stereo partly shown) [Compound 328] | < 100 | < 100
32 | C=CC1C[C@]1(NC(=O)[C@@H]1C[C@@H](Oc2nc(-c3ccccc3N(C)C)cc3cc(OC)ccc23)CN1C(=O)[C@@H](NC(=O)OC(C)(C)C)C(C)(C)C)C(=O)NS(=O)(=O)C1CC1 (stereo partly shown) [Compound 329] | < 100 | < 100
33 | C=CC1C[C@]1(NC(=O)[C@@H]1C[C@@H](Oc2nc(-c3cccc(N(C)C)c3)cc3cc(OC)ccc23)CN1C(=O)[C@@H](NC(=O)OC(C)(C)C)C(C)(C)C)C(=O)NS(=O)(=O)C1CC1 (stereo partly shown) [Compound 330] | < 100 | < 100
34 | C=CC1C[C@]1(NC(=O)[C@@H]1C[C@@H](Oc2noc3ccccc23)CN1C(=O)[C@@H](NC(=O)OC(C)(C)C)C(C)(C)C)C(=O)NS(=O)(=O)C1CC1 (stereo partly shown) [Compound 334] | 100 to 1000 | 100 to 1000
35 | C=CC1C[C@]1(NC(=O)[C@@H]1C[C@@H](Oc2nccc(-c3ccccc3)n2)CN1C(=O)[C@@H](NC(=O)OC)C(C)(C)C)C(=O)NS(=O)(=O)C1CC1 (stereo partly shown) [Compound 335] | < 100 | 1000 to 10000

From patent publication US7915291B2, “Hepatitis C virus inhibitors” (Bristol-Myers Squibb Company, priority 2002, dated 2011)
